In paper PMC12804144, “Lipopeptide ligands captured by MHC class I molecules undergo dynamic conformational changes that affect their antigenic strength” (The Journal of Biological Chemistry, 2025):

Experiments:
SN45 TCR = assay: Biolayer interferometry of SN45 TCR with lipopeptide-bound MHC class I complexes; type: binding, rhesus monkey
Source text: Cell-based analyses may be influenced by undefined factors related to the use of live cells and serum components. Therefore, we first sought to validate the separation of the two groups at the molecular level. To this end, we investigated the kinetics of TCR–lipopeptide interactions in biolayer interferometry experiments. […] All refolded complexes were purified by size-exclusion and anion-exchange chromatography, and nearly identical elution profiles were obtained for each lipopeptide sample. […]
Figure 1 Biolayer interferometry analysis of interactions between the SN45 TCR and lipopeptide-bound Mamu-B∗05104 complexes. The molecular interaction kinetics of SN45 TCR and lipopeptide-bound Mamu-B∗05104 complexes were assessed using the Octet RED96 system, in which biotinylated SN45 TCR proteins were immobilized on streptavidin-coated sensors, and serially diluted Mamu-B∗05104 complexes were applied as analytes. […]
Biomolecular interaction analyses were performed using the Octet RED96 system equipped with a streptavidin-conjugated biosensor (Sartorius), according to the manufacturer’s instructions. […] A shift in the interference pattern was monitored in real time during this period. […]

[1] = tested on: J.RT3/SN45 (SN45 TCR-reconstituted Jurkat T-cell line); details: J.RT3/SN45 responder T cells; cited from earlier work
Source text: J.RT3, a TCR-deficient Jurkat cell line, was transfected with SN45-derived TCRα and TCRβ complementary DNAs in a previous study. The SN45 TCR-reconstituted T-cell line (J.RT3/SN45) was used as responder T cells to compare antigenic activities among C14nef4-related analogs.

Substance	binding to the SN45 TCR (SN45 TCR; C14nef5-bound Mamu-B∗098 complex as analyte, negative control)	antigenic activity group (highly / poorly antigenic) [1]	antigenic group by biolayer interferometry (highly / poorly antigenic) (SN45 TCR; lipopeptide-bound Mamu-B∗05104 complex as analyte on immobilized SN45 TCR)
C14-Gly1-Gly2-Ala3-Ile4-Ser5 [C14nef5, reference compound]	failed to bind	–	–
C14-Gly1-Gly2-Ala3-Ile4 [C14nef4]	–	highly antigenic	highly antigenic
